{"source": "patent US11058775B2", "about": "“Insulin dimer-incretin conjugates” (Merck Sharp & Dohme Corp., priority 2016, dated 2021)", "molecular_target": "T1, human GCGR (Homo sapiens, UniProt P47871)", "T1 construct": "expressed in transfected cells; grown under Blasticidin and Hygromycin selection", "T1 sequence (P47871 26-477)": "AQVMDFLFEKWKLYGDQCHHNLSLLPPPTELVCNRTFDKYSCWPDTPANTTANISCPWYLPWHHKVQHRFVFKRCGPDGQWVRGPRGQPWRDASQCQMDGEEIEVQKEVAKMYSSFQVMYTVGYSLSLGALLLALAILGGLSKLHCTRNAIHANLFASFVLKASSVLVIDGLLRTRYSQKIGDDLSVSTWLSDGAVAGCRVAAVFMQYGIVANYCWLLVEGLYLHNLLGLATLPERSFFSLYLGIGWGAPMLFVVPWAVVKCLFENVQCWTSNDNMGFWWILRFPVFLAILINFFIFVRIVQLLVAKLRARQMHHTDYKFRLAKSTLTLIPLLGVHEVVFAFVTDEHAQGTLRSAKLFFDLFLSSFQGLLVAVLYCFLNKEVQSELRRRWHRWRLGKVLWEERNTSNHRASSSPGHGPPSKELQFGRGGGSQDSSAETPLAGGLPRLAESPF", "assay": "cAMP activity assay, cells expressing human GCGR", "type": "cell-based", "details": "ratio of hGCGR EC50 to hGLP1R EC50, Table 7", "procedure": "Activity of the peptides and the conjugates at the Glucagon receptor (GCGR) and GLP-1 receptor (GLP1R) may be measured in a cAMP activity assay as follows.\nPeptides are dissolved in 100% DMSO and serially diluted to generate 10 point titrations. The peptide solutions are then transferred into 384-well assay plates (150 nL/well). Assay ready frozen cells expressing human GIPR, GLP1R or human GCGR are suspended in growth media consisting of DMEM medium (GIBCO), 10% FBS (GIBCO), 1×NEAA(GIBCO), 1×P/S (GIBCO), 10 μg/mL Blasticidin (GIBCO) and 200 μg/mL Hygromycin (GIBCO). […] The cell suspensions (15 μL) are then added to the assay plates containing the peptide solutions (30,000 cells/well for human GCGR; 10,000 cells/well for human GLP1R and 15,000 cells/well for human GIPR). The cells are incubated for one hour at room temperature in the dark.\nProduction of cAMP may be determined using HitHunter™ cAMPXS kits (DiscoverX) following the manufacturer's protocol. The plates are incubated for overnight at room temperature in the dark. Luminescence may be measured using an EnVision Multilabel plate reader (Perkin Elmer). Native GIP, GLP-1 and Glucagon (Bachem) may be used as control peptides. EC50 values may be calculated using uses a 4 parameter logistic fit based on the Levenberg-Marquardt algorithm."}
{"smiles": "CC(C)C[C@H](NC(=O)[C@H](Cc1ccc(O)cc1)NC(=O)[C@H](CCCCN)NC(=O)[C@H](CO)NC(=O)[C@H](CCCCN)NC(=O)[C@H](CC(=O)O)NC(=O)[C@H](CO)NC(=O)[C@@H](NC(=O)[C@H](Cc1ccccc1)NC(=O)[C@@H](NC(=O)CNC(=O)[C@H](CCC(N)=O)NC(=O)[C@@H](CO)NC(=O)[C@@H](N)Cc1c[nH]cn1)[C@@H](C)O)[C@@H](C)O)C(=O)N[C@@H](CC(=O)O)C(=O)N[C@@H](CCC(=O)O)C(=O)N[C@@H](CCCNC(=N)N)C(=O)N[C@@H](C)C(=O)N[C@@H](C)C(=O)N[C@@H](CCC(N)=O)C(=O)N[C@@H](CC(=O)O)C(=O)N[C@@H](Cc1ccccc1)C(=O)N[C@H](C(=O)N[C@@H](CCCCN=[N+]=[N-])C(=O)N[C@@H](Cc1c[nH]c2ccccc12)C(=O)N[C@@H](CC(C)C)C(=O)N[C@@H](CC(C)C)C(=O)N[C@@H](CC(=O)O)C(=O)N[C@H](C(N)=O)[C@@H](C)O)C(C)C", "note": "[PEP88]", "values": [{"measurement": "GCGR/GLP1R ratio", "result": 0.97}]}
